Source: patent US8114886B2, “Pyridylmethylsulfone derivative” (Daiichi Sankyo Company, Limited, priority 2005, dated 2012)
“Also recorded” adds a separate entry of the source. Where two headings read alike, the source gives them in different places.

Experiments:
[1] = test system: β-amyloid protein (Aβ) secreted by E35 cells (H4 cells with APP751 gene); assay: Screening system using E35 cells for inhibition of production/secretion of β-amyloid protein (sandwich ELISA of Aβ in culture medium); type: cell-based, human; conditions: 24 hours with compound, Aβ in culture supernatant by ELISA, read-out: Inhibitory Activity for Production of A(EC50)
Summary of the method: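 H4 glioma cells expressing human wild-type APP751 (E35) treated 24 h with compound (0.05% DMSO); secreted Aβ quantified by sandwich ELISA (25-1 capture, biotinylated MA32-40 detection) against a calibration curve. EC50 is 50% inhibition versus untreated cells; cytotoxicity checked separately in H4 cells by Alamar Blue after 72 h.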

[2] = test system: intracerebral amount of Aβ; assay: Assessment of β-amyloid protein production inhibitory action and immunosuppressing action in vivo; conditions: male SD rats, oral, single dose, cerebrum Aβ after 3 hours, repeated administration for 7 days for immunosuppression
Excerpt: As an example of the compound (1), the compounds described in Example 22, Example 85, Example 101, Example 106 or Example 118 (respectively, compound represented by the above formula (1-1), (1-2), (1-3), (1-4) or (1-5), which will be hereinafter referred respectively to compound (1-1), (1-2), (1-3), (1-4) or (1-5)), or the control compound LY, was suspended in a 0.5% aqueous solution of methylcellulose, and the suspension was orally administered in a single dose to male SD rats (about 5 weeks old). For the solvent control group, a 0.5% aqueous solution of methylcellulose was administered alone. After 3 hours of administration, the brain was excised, and the cerebrum was collected. The cerebrum was homogenized with a 42% aqueous solution of formic acid, and was centrifuged at 100,000×g for 60 minutes. The resulting supernatant was neutralized with 1 M Tris, and the Aβ concentration in these samples were measured using the sandwich type ELISA method as described in Test Example 1. Furthermore, the compound (1-1) to (1-5) or control compound LY was orally administered to male SD rats repeatedly for 7 days, and the rats were subjected to histopathological and serological examinations, so as to assess the immunosuppressing effect of the compound.

Structure (SMILES) | melting point [°C] | EC50 ([1]; Homo sapiens) [nM] | also measured
CC(C)[C@H](O)C(=O)N[C@@H](C)C(=O)N[C@@H]1C(=O)N(C)CCc2ccccc21 [LY, (N)—((S)-2-hydroxy-3-methyl-butyryl)-1-(L-alaninyl)-(S)-1-amino-3-methyl-4,5,6,7-tetrahydro-2H-3-benzoazepin-2-one, reference compound] |  |  | EC50 [1]: 5 to 50 nM; difference between the dose exhibiting a statistically significant decrease in the intracerebral amount of Aβ and the dose exhibiting an immunosuppressing effect [2]: no sufficient difference was recognized
Cc1cc(C(=O)NCO)ncc1C(c1cc(F)ccc1F)S(=O)(=O)c1ccc(F)cc1 (centres unmarked) [Example 85, 5-[(2,5-difluorophenyl)[(4-fluorophenyl)sulfonyl]methyl]-N-(1-hydroxymethyl)-4-methylpyridine-2-carboxamide] | 164 to 166 | ≤ 5 | difference between the dose exhibiting a statistically significant decrease in the intracerebral amount of Aβ and the dose exhibiting an immunosuppressing effect ([2]; listed as (1-2)): sufficient differences were recognized
Cc1cc(C(=O)NCO)ncc1C(c1c(F)ccc(F)c1F)S(=O)(=O)c1ccccc1 (centres unmarked) [Example 106, N-(1-hydroxymethyl)-4-methyl-5-[(phenylsulfonyl)(2,3,6-trifluorophenyl)methyl]pyridine-2-carboxamide] |  | ≤ 5 | difference between the dose exhibiting a statistically significant decrease in the intracerebral amount of Aβ and the dose exhibiting an immunosuppressing effect ([2]; listed as (1-4)): sufficient differences were recognized
Cc1cc(C(=O)N(C)C)ncc1C(c1cc(F)ccc1F)[S+]([O-])c1ccc(F)cc1 (centres unmarked) [Example 22, 5-[(2,5-Difluorophenyl)[(4-fluorophenyl)sulfinyl]methyl]-N,N,4-trimethylpyridine-2-carboxamide] |  | 500 to 5000 | difference between the dose exhibiting a statistically significant decrease in the intracerebral amount of Aβ and the dose exhibiting an immunosuppressing effect ([2]; listed as (1-1)): sufficient differences were recognized; also recorded: sufficient difference
Cc1cc(C(=O)NCO)ncc1C(c1c(F)ccc(F)c1F)S(=O)(=O)c1ccc(C(F)(F)F)nc1 (centres unmarked) [Example 118, N-(1-hydroxymethyl)-4-methyl-5-[[[6-(trifluoromethyl)pyridin-3-yl]sulfonyl](2,3,6-trifluorophenyl)methyl]pyridine-2-carboxamide] | 181 to 182 | ≤ 5 | difference between the dose exhibiting a statistically significant decrease in the intracerebral amount of Aβ and the dose exhibiting an immunosuppressing effect ([2]; listed as (1-5)): sufficient differences were recognized
Cc1cc(C(=O)NCO)ncc1C(c1c(F)ccc(F)c1F)S(=O)(=O)c1ccc(F)cc1 (centres unmarked) [Example 101, 5-[[(4-Fluorophenyl)sulfonyl](2,3,6-trifluorophenyl)methyl]-N-(1-hydroxymethyl)-4-methylpyridine-2-carboxamide] |  | ≤ 5 | difference between the dose exhibiting a statistically significant decrease in the intracerebral amount of Aβ and the dose exhibiting an immunosuppressing effect ([2]; listed as (1-3)): sufficient differences were recognized
